Measured values published in patent publication US9868695B2 (priority 2014, dated 2018).
“And” between values parts separate entries of the source, which are not always exact repeats. Equal values may be shown once. Read-outs that look alike come from different tables or passages of the source.

How the values were obtained:
[1] = Oral and IV pharmacokinetic studies; type: in vivo; settings: BALB/c mice; for bioavailability: PO 10 mg/Kg vs IV 1 mg/Kg
Procedure: Oral and intravenous (IV) pharmacokinetic studies of compound 1g were carried out in BALB/c male mice (Jubilant Biosys Limited, Bangalore) of age 4-6 weeks, by administering 1g orally and IV at dose of 10 mg/kg for oral and 1 mg/kg for IV. Plasma samples were collected at appropriate time points between the range of 0 hours to 24 hours and analyzed by LC-MS-MS. Mean plasma concentration calculated and data were further analyzed for PK parameters using WinNonlin 5.3 software package.

[2] = system: Colo-205; assay: Antiproliferative activity, MTT assay, Colo-205; type: cell-based; settings: Homo sapiens, 48 h
Procedure: (§1) Human colon cancer cell lines HCT-116 (NCI, passage no. 5) and Colo-205 116 (NCI, passage no. 3) were procured from National Cancer Institute, USA. HCT-116 and Colo-205 cells were grown in McCoy's 5A and RPMI growth medium respectively containing 10% FCS, 100 U penicillin and […] per mL medium. Cells were grown in CO2 incubator (Thermocon Electron Corporation, Houston, Tex.) at 37° C. with 95% humidity and 5% CO2 gas environment. Cells treated with tested materials were dissolved in DMSO while the untreated control cultures received only the vehicle (DMSO<0.2%). Cells were seeded in 96 well plates and exposed to tested compounds at various concentrations for 48 h time interval. MTT dye (2.5 mg/ml in PBS) was added 4 hrs priors to experiment termination. The plates were then centrifuged at 1500 rpm for 15 min and the supernatant was discarded, and MTT formazan crystals were dissolved in 150 μl of DMSO. The OD measured at 570 nm with reference wavelength of 620 nm.
(§2) The percentages of cell viability and growth inhibition were calculated using formulas: […]

[3] = system: HCT-116; assay: Antiproliferative activity, MTT assay, HCT-116; type: cell-based, Human; settings: 48 h
Procedure: as §1, §2

[4] = system: Ehrlich solid tumor; assay: In vivo activity in Ehrlich solid tumor model; set-up: species or system swiss mice; settings: i/p day 1-9, 1 0.75 mg/kg, 1g 1 mg/kg, 5-fluorouracil 22 mg/kg; for Mortality: dead/group size
Procedure: Ehrlich ascites carcinoma (EAC) cells were collected from the peritoneal cavity of the swiss mice (animal house of IIIM registered eith CPCSEA; registration no. 67/99/CPCSEA) weighing 18-23 gm, harbouring 8-10 days old ascitic tumor. 1×10^7 EAC cells were injected intramuscularly in the right thigh of 38 swiss male mice selected for the experiment on day 0. The next day, animals were randomized and divided into five groups. Four treatment groups contained 7 animals each and one control group contained 10 animals. Treatment was given as follows:
Group I: 1 (0.75 mg/kg, i/p) from day 1-9.
Group II: 1g (1 mg/kg, i/p) from day 1-9.
The third treatment group was treated with 5-fluorouracil (22 mg/kg, i/p) from day 1-9 and it served as positive control. The control group was similarly administered normal saline (0.2 ml, i/p) from day 1-9. On day 9 & 13, tumor bearing thigh of each animal was shaved and longest and shortest diameters of the tumor were measured with the help of vernier caliper. Tumor weight of each animal was calculated using the following formula.
The percent tumor growth inhibition was calculated on day 13 by comparing the average values of treated groups with that of control group. Tumor growth in saline treated control animals was taken to be 100%.

[5] = system: P-gp; assay: P-gp induction assay, rhodamine123 (Rh123) cell exclusion method in LS-180 cells
Procedure: All synthesized compounds were screened for their ability to induce P-gp by using rhodamine123 (Rh123) cell exclusion method. In this method, the P-gp function was evaluated in terms of rhodamine 123 (Rh123) accumulation and efflux. Briefly, the protocol used is as follows: Colorectal LS-180 cells (ECACC type, purchased from Sigma, Cat. no. 87021202, cell passage no. 52) were seeded at a density of 2×10^4 per well of 96 well plate and were allowed to grow for next 24 h. Cells were further incubated with the test compounds, and were diluted to a final concentration of 100 nM and rifampicin (standard) to a final concentration of 10 μM in complete media for 48 h. The final concentration of DMSO was kept at 0.1%. Drugs were removed and cells were incubated with HANKS buffer for 40 minutes before further incubation with HANKS buffer (containing 10 μM of Rh123 as a P-gp substrate) for 90 minutes. At the end of Rh123 treatment cells were washed four times with cold PBS followed by cell lysis for 1 h by using 200 μl of lysis buffer (0.1% Triton X-100 and 0.2 N NaOH). A total of 100 μl of lysate was used for reading fluorescence of Rh123 at 485 nm/529 nm. Samples were normalized by dividing fluorescence of each sample with total protein present in the lysate. For EC50 determination, different concentrations of compound were used to treat LS180 cells for 48 h. EC50 was determined by plotting fluorescence of Rh123 against concentration of compound.

[6] = Thermodynamic equilibrium solubility; type: physicochemical; settings: 25 °C, thermodynamic from solid, 25±1° C.
Procedure: The compounds were first dissolved in methanol to prepare stock solutions (100 and 1000 μg/mL). Different concentrations of stock solutions were pipetted into the 96-well plates and the solvent was evaporated to ensure that solid drug was present in the beginning of the experiment. Thereafter, 200 μl of the dissolution medium was added to the wells and 96-well plate was shaken horizontally at 300 rpm (Eppendorf Thermoblock Adapter, North America) for 4 h at room temperature (25±1° C.). The plates were kept overnight for equilibration of drug in medium. Later, the plates were centrifuged at 3000 rpm for 15 min (Jouan centrifuge BR4i). Supernatant (50 μl) was pipetted into UV 96-well plates (Corning® 96 Well Clear Flat Bottom UV-Transparent Microplate) for analyses with plate reader (SpectraMax Plus384) at λmax of 350 nm. The analyses were performed in triplicate for each compound. The solubility curve of concentration (μg/mL) vs absorbance was plotted to find out saturation point and the corresponding concentration was noted.

[7] = male, mouse, plasma, IV 1 mg/Kg
[8] = male, mouse, plasma, PO 10 mg/Kg

**Q.** Which Tlast ([1]; IV 1 mg/Kg) does the source give for `COc1cc2c(c(OC)c1OC)-c1ccc(Nc3ccc(Cl)c(C(F)(F)F)c3)c(=O)cc1[C@@H](NC(C)=O)CC2` [Compound 1g, N-[(7S)-1,2,3-Trimethoxy-9-oxo-10-[3-(trifluoromethyl)-4-chloro-phenylamino]-5,6,7,9-tetrahydrobenzo[a]heptalen-7-yl]acetamide] here?
**A.** 8.00 h

**Q.** And the CL ([1]; IV 1 mg/Kg, 1 mg/kg)?
**A.** 6.19 mL/min/kg

**Q.** What about the bioavailability [1] of the same compound?
**A.** 64.4 % F

**Q.** What about the clearance ([1]; male, BALB/c, mouse, plasma, iv, 1 mg/kg, IV 1 mg/Kg) of the same compound?
**A.** ~6 mL/min/kg

**Q.** What about the Vd ([1]; male, BALB/c, mouse, plasma, iv, 1 mg/kg, IV 1 mg/Kg, read-out: Vd) of the same compound?
**A.** 1.49 L/kg

**Q.** And the Vd ([1]; male, BALB/c, mouse, plasma, iv, 1 mg/kg, IV 1 mg/Kg, read-out: Vdss)?
**A.** 1.47 L/kg

**Q.** What about the AUC(0-inf) [1, 7] of the same compound?
**A.** 2690 ng·h/mL

**Q.** What about the AUC(0-t) [1, 7] of the same compound?
**A.** 2340 ng·h/mL

**Q.** What about the Cmax [1, 7] of the same compound?
**A.** 698 ng/mL

**Q.** What about the C0 ([1]; male, mouse, plasma, IV 1 mg/Kg, extrapolated, calculated manually using initial 3 time points) of the same compound?
**A.** 819 ng/mL

**Q.** And the half-life ([1]; male, mouse, plasma, IV 1 mg/Kg, read-out: t1/2, β (converted))?
**A.** 2.78 h

**Q.** What about the bioavailability ([1]; male, mouse, plasma, read-out: absolute oral bioavailability) of the same compound?
**A.** 64%

**Q.** And the AUC(0-inf) [1, 8]?
**A.** 17300 ng·h/mL

**Q.** And the AUC(0-t) [1, 8]?
**A.** 16900 ng·h/mL

**Q.** What about the Cmax [1, 8] of the same compound?
**A.** 3030 ng/mL

**Q.** And the Tmax [1, 8]?
**A.** 2 h

**Q.** What about the half-life ([1]; male, mouse, plasma, PO 10 mg/Kg, read-out: t1/2,β (converted)) of the same compound?
**A.** 5.43 h

**Q.** What about the IC50 [2] of the same compound?
**A.** 30 nM

**Q.** What about the IC50 [3] of the same compound?
**A.** 40 nM

**Q.** What about the “Avg. body weights (g) of animal on days 1” value ([4]; day 1) of the same compound?
**A.** 22.28 g

**Q.** What about the “Avg. body weights (g) of animal on days 5” value ([4]; day 5) of the same compound?
**A.** 22.0 g

**Q.** And the “Avg. body weights (g) of animal on days 9” value ([4]; day 9)?
**A.** 21.28 g

**Q.** What about the “Day 13 Avg. body weights” value ([4]; day 13) of the same compound?
**A.** 21.66 g

**Q.** And the “Day 13 Avg. tumor weights” value ([4]; day 13)?
**A.** 778.0 mg

**Q.** And the “% Tumor Growth Inhibition” value ([4]; day 13 vs saline control)?
**A.** 47.35%

**Q.** And the Mortality [4]?
**A.** no mortality and 0/7

**Q.** And the Mortality ([4]; listed as 4o)?
**A.** no mortality

**Q.** And the P-gp induction activity ([5]; LS180 cells, Rh123 accumulation, in words)?
**A.** complete loss of P-gp induction activity

**Q.** What about the “% intracellular accumulation of Rh123 in LS180 cells” value ([5]; compound 100 nM, 48 h, control = 100%, decrease indicates P-gp induction) of the same compound?
**A.** 90%

**Q.** And the EC50 ([5]; read-out: EC50, induction of P-gp, P-gp overexpressing LS-180 cells, 48 h)?
**A.** 69 nM

**Q.** What about the solubility ([6]; aqueous buffer, phosphate buffer saline, read-out: Solubility, PBS) of the same compound?
**A.** > 1500 µg/mL

**Q.** What about the solubility ([6]; fassgf or other biorelevant, simulated intestinal fluid, read-out: Solubility, SIF) of the same compound?
**A.** > 1500 µg/mL

**Q.** What about the solubility ([6]; simulated gastric fluid, read-out: Solubility, SGF) of the same compound?
**A.** > 1500 µg/mL

**Q.** And the solubility ([6]; water, read-out: Solubility, Water)?
**A.** > 1500 µg/mL
